Data taken from the supplement of paper PMC11061612.

How the values were obtained:
Experiment in all cases: combination Emax (second highest fraction inhibited in the dose matrix, 72 h); higher = more inhibition; extreme values may be limits of the assay
[1] = tested on: OCI-M1 (Acute Myeloid Leukemia)
Summary of the method: (§1)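 Cell lines grown in DMEM/F12 or RPMI with 10% FBS were plated in 1536-well plates and held 24 hours at 37°C, 5% CO2 before 72 hours of exposure to two-drug dose matrices, with DMSO typically at 0.2%. CellTiter-Glo 2.0 luminescence gave viability, which was converted to inhibition. Vehicle wells were set to 0 and blank wells to 1. Combination Emax is the second-highest inhibition in the matrix, and Bliss excess is the observed combination effect minus the expected EA + EB − EA·EB, where EA and EB are the single-agent effects.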

[2] = tested on: NCI-H2023 (Non-Small Cell Lung Carcinoma)
Summary of the method: as §1

[3] = tested on: NTERA-2-cl-D1 (Other Solid Carcinomas)
Summary of the method: as §1

[4] = tested on: JURL-MK1 (Chronic Myelogenous Leukemia)
Summary of the method: as §1

[5] = tested on: L-363 (Plasma Cell Myeloma)
Summary of the method: as §1

[6] = tested on: TK (B-Cell Non-Hodgkin's Lymphoma)
Summary of the method: as §1

DK-MG (Glioblastoma) = tested on: DK-MG (Glioblastoma)
Summary of the method: as §1

[7] = tested on: NCI-H2009 (Lung Adenocarcinoma)
Summary of the method: as §1

[8] = tested on: MDA-MB-175-VII (Breast Carcinoma)
Summary of the method: as §1

[9] = tested on: NCI-H1975 (Lung Adenocarcinoma)
Summary of the method: as §1

[10] = tested on: RS4-11 (B-Lymphoblastic Leukemia)
Summary of the method: as §1

[11] = tested on: ATN-1 (T-Lymphoblastic Leukemia)
Summary of the method: as §1

GCIY (Gastric Carcinoma) = tested on: GCIY (Gastric Carcinoma)
Summary of the method: as §1

C32 (Melanoma) = tested on: C32 (Melanoma)
Summary of the method: as §1

[12] = tested on: IGROV-1 (Ovarian Carcinoma)
Summary of the method: as §1

[13] = tested on: MRK-nu-1 (Breast Carcinoma)
Summary of the method: as §1

[14] = tested on: HT-3 (Cervical Carcinoma)
Summary of the method: as §1

[15] = tested on: JJN-3 (Plasma Cell Myeloma)
Summary of the method: as §1

[16] = tested on: NCI-H1048 (Small Cell Lung Carcinoma)
Summary of the method: as §1

[17] = tested on: C2BBe1 (Colorectal Carcinoma)
Summary of the method: as §1

Structure (SMILES)	combination Emax [1]	combination Emax [2]	combination Emax [3]	combination Emax [4]	combination Emax [5]	combination Emax [6]	combination Emax (DK-MG (Glioblastoma))	combination Emax [7]	combination Emax [8]	combination Emax [9]	combination Emax [10]	combination Emax [11]	combination Emax (GCIY (Gastric Carcinoma))	combination Emax (C32 (Melanoma))	combination Emax [12]	combination Emax [13]	combination Emax [14]	combination Emax [15]	combination Emax [16]	combination Emax [17]
COc1nnc2ccc(N3CCC(c4ccc(OCCN5CCN(C)C(=O)[C@H]5C)cc4)CC3)nn12 [AZD5153] + CCN(CCO)CCCOc1ccc2c(Nc3cc(CC(=O)Nc4cccc(F)c4)[nH]n3)ncnc2c1 [AZD2811] (first compound max 1 µM, 7x7, partner max 1 µM)	1	0.422	0.68	0.898	0.589	0.371	0.614	0.382	0.509	0.781	0.977	0.734	0.63	0.38	0.618	0.561	0.332	0.876	0.514	0.558
CC1(C)CCC(CN2CCN(c3ccc(C(=O)NS(=O)(=O)c4ccc(NCC5CCOCC5)c([N+](=O)[O-])c4)c(Oc4cnc5[nH]ccc5c4)c3)CC2)=C(c2ccc(Cl)cc2)C1 [Venetoclax] + Cn1cnc2c(F)c(Nc3ccc(Br)cc3Cl)c(C(=O)NOCCO)cc21 [Selumetinib] (first compound max 1 µM, 7x7, partner max 3 µM)	0.483	0.177	0.742	0.876	0.833	0.981	0.362	0.184	0.255	0.28	1	0.137	0.514	0.941	0.595	0.235	0.118	0.462	0.153	0.329
Cn1cnc2c(F)c(Nc3ccc(Br)cc3Cl)c(C(=O)NOCCO)cc21 [Selumetinib] + C=CCn1c(=O)c2cnc(Nc3ccc(N4CCN(C)CC4)cc3)nc2n1-c1cccc(C(C)(C)O)n1 [AZD1775] (first compound max 10 µM, partner max 1 µM)	0.956	0.281	0.271	1	0.924	0.93	0.408	0.779	0.558	0.492	0.979	0.974	0.475	0.987	0.848	0.0295	0.195	0.67	0.862	0.569
CC(=O)Nc1cccc(-n2c(=O)n(C3CC3)c(=O)c3c(Nc4ccc(I)cc4F)n(C)c(=O)c(C)c32)c1 [Trametinib] + Cc1nc(-c2cn3c(n2)-c2ccc(-c4cnn(C(C)(C)C(N)=O)c4)cc2OCC3)n(C(C)C)n1 [Taselisib] (first compound max 1 µM, 7x7, partner max 10 µM)	1	0.769	0.666	1	0.635	0.169	0.969	0.955	1	0.96	0.35	0.74	0.99	1	0.966	0.814	0.673	0.532	1	0.916
COc1nnc2ccc(N3CCC(c4ccc(OCCN5CCN(C)C(=O)[C@H]5C)cc4)CC3)nn12 [AZD5153] + C=CCn1c(=O)c2cnc(Nc3ccc(N4CCN(C)CC4)cc3)nc2n1-c1cccc(C(C)(C)O)n1 [AZD1775] (first compound max 1 µM, partner max 1 µM)	0.999	0.501	0.672	0.998	0.935	0.97	0.689	0.703	0.432	0.728	0.979	0.98	0.605	0.354	0.838	0.309	0.553	0.873	0.787	0.547
COc1cccc2c1C(=O)c1c(O)c3c(c(O)c1C2=O)C[C@@](O)(C(=O)CO)C[C@@H]3O[C@H]1C[C@H](N)[C@H](O)[C@H](C)O1 [Doxorubicin] + Cc1cc2ncnn2cc1Nc1ncc2c(n1)n(C1CCOCC1)c(=O)n2C [AZD7648] (first compound max 1 µM, 7x7, partner max 10 µM)	0.963	0.825	1	1	0.925	0.73	0.469	0.546	0.512	0.932	0.977	0.996	0.663	0.68	0.611	0.695	0.781	0.735	0.933	0.242
Cc1c2c(nn1C)CSCc1cc(n(C)n1)CSc1cc(c3ccccc3c1)OCCCc1c(C(=O)O)n(C)c3c-2c(Cl)ccc13 [AZD5991] + C1CN(CCC1(C(=O)N[C@@H](CCO)C2=CC=C(C=C2)Cl)N)C3=NC=NC4=C3C=CN4 [Capivasertib] (first compound max 1 µM, 7x7, partner max 3 µM)	0.115	0.299	0.529	0.729	1	0.17	0.86	0.158	0.488	0.623	0.519	0.989	0.36	0.266	0.767	1	0.307	1	1	0.251
